Source: ChEMBL document CHEMBL4622995, “Aryl Ether-Derived Sphingosine-1-Phosphate Receptor (S1P1) Modulators: Optimization of the PK, PD, and Safety Profiles” (ACS Med Chem Lett, 2020)
Each block holds one compound with its values, some of them ahead of it.

Legend:
Rattus norvegicus [1] = test: Reduction in circulating lymphocytes count in Lewis rat peripheral blood at 0.3 mg/kg, po measured after 24 hrs by hematology analyzer based analysis; type: functional
Rattus norvegicus [2] = test: Reduction in circulating lymphocytes count in Lewis rat peripheral blood at 2 mg/kg, po measured after 24 hrs by hematology analyzer based analysis; type: functional
[3] = Elimination half-life in Lewis rat at 2 mg/kg, po; type: ADME, organism-based; settings: in vivo, read-out: beta t1/2 (converted)
[4] = Cardiotoxicity in human iPSC derived cardiomyocytes assessed as reduction in beating rate at 1 nM; type: toxicity, cell-based, Cardiac muscle cell
[5] = Cardiotoxicity in human iPSC derived cardiomyocytes assessed as reduction in beating rate at 10 nM; type: toxicity, cell-based, Cardiac muscle cell
[6] = Elimination half-life in Lewis rat at 0.3 mg/kg, po; type: ADME, organism-based; settings: in vivo, read-out: beta t1/2 (converted)
Rattus norvegicus [7] = test: Reduction in circulating lymphocytes count in po dosed Lewis rat peripheral blood measured after 24 hrs by hematology analyzer based analysis; type: functional
Sphingosine kinase 2 [8] = target: T1, Sphingosine kinase 2 (Rattus norvegicus, UniProt A6JB73); test: Drug metabolism in Sprague-Dawley rat assessed as SphK2-mediated compound phosphorylation by measuring ratio of phosphorylated compound to parent compound measured after 24 hrs; type: ADME
T1 sequence (A6JB73 whole entry): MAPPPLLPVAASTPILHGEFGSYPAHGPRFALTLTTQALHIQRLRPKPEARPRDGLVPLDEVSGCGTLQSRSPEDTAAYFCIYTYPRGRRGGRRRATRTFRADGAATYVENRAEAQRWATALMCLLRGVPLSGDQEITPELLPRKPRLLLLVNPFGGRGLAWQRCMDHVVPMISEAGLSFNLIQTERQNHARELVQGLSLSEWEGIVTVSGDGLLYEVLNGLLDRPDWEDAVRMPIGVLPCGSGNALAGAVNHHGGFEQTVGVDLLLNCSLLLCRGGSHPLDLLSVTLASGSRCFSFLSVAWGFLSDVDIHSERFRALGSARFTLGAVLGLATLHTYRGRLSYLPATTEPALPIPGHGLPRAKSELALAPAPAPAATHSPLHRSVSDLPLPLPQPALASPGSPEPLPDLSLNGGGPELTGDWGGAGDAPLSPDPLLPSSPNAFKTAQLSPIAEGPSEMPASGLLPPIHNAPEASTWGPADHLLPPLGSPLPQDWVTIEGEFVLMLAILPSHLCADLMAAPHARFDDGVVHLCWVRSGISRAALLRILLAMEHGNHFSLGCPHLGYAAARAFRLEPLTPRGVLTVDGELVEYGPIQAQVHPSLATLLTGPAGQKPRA

[9] = Drug metabolism in Cynomolgous monkey assessed as SphK2-mediated compound phosphorylation by measuring ratio of phosphorylated compound to parent compound measured after 24 hrs; type: ADME, Macaca fascicularis; settings: cynomolgus monkey
Sphingosine kinase 2 [10] = target: T2, Sphingosine kinase 2 (Homo sapiens, UniProt Q9NRA0); test: Drug metabolism in human assessed as SphK2-mediated compound phosphorylation by measuring ratio of phosphorylated compound to parent compound measured after 24 hrs; type: ADME
T2 sequence (Q9NRA0 whole entry): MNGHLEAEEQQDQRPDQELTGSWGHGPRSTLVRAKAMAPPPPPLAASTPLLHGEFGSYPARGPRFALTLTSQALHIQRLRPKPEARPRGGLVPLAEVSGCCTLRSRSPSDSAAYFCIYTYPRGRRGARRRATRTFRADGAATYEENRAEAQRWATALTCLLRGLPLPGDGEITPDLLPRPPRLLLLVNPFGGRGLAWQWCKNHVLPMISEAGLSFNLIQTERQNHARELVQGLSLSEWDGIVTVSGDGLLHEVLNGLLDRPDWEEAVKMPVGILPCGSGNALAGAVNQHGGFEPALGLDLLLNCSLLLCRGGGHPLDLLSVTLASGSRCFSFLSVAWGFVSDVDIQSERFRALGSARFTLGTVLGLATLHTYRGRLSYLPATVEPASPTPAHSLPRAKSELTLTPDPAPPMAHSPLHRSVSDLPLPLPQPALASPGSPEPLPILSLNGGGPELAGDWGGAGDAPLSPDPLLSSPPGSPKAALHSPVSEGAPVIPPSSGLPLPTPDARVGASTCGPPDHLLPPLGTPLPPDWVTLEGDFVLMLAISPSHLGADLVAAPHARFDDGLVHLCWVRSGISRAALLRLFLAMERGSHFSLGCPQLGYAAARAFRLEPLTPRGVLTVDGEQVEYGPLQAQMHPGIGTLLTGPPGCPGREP

[11] = Elimination half-life in po dose Lewis rat; type: ADME, organism-based; settings: in vivo, read-out: beta t1/2
Homo sapiens = species: Homo sapiens; test: Reduction in absolute lymphocytes count in human at 1.5 mg/day; type: functional
Rattus norvegicus [12] = test: Reduction in circulating lymphocytes count in Lewis rat peripheral blood at 0.1 mg/kg, po measured after 24 hrs by hematology analyzer based analysis; type: functional
[13] = Pulmonary toxicity in Lewis rat assessed as elevation of BAL protein content at 2 mg/kg, po; type: organism-based; settings: in vivo
[14] = Pulmonary toxicity in Lewis rat assessed as elevation of BAL protein content at >30XED50, po; settings: in vivo
Rattus norvegicus [15] = test: Reduction in circulating lymphocytes count in Lewis rat peripheral blood at 0.05 mg/kg, po measured after 24 hrs by hematology analyzer based analysis; type: functional
Rattus norvegicus [16] = test: Reduction in circulating lymphocytes count in Lewis rat peripheral blood at 1 mg/kg, po measured after 24 hrs by hematology analyzer based analysis; type: functional
Rattus norvegicus [17] = test: Reduction in circulating lymphocytes count in Lewis rat peripheral blood at 1.5 mg/kg, po measured after 24 hrs by hematology analyzer based analysis; type: functional

half-life [3]: 20 h
Compound: N[C@]1(CO)CC[C@H](c2ccc3c(c2)CC[C@@H](CSc2ccccc2)C3)C1
inhibition in vivo at 0.3 mg/kg (Rattus norvegicus [1]): 31%
inhibition in vivo at 2 mg/kg (Rattus norvegicus [2]): 73%

Compound: N[C@]1(COP(=O)(O)O)CC[C@H](c2ccc3c(c2)CC[C@@H](COCc2ccccc2)C3)C1
inhibition at 0.001 µM [4]: 16%
inhibition at 0.01 µM [5]: 52%

Compound: COc1ccc(OC[C@@H]2CCc3cc([C@H]4CC[C@](N)(CO)C4)ccc3C2)c(F)c1F
inhibition in vivo at 2 mg/kg (Rattus norvegicus [2]): 48%

Compound: COc1ccccc1CC[C@@H]1CCc2cc([C@H]3CC[C@](N)(COP(=O)(O)O)C3)ccc2C1
inhibition at 0.001 µM [4]: 11%
inhibition at 0.01 µM [5]: 27%

half-life [3]: 46 h
Compound: N[C@]1(CO)CC[C@H](c2ccc3c(c2)CC[C@@H](COc2ccc(F)cc2)C3)C1
inhibition in vivo at 2 mg/kg (Rattus norvegicus [2]): 74%

Compound: COc1ccc(OC[C@@H]2CCc3cc([C@H]4CC[C@](N)(CO)C4)ccc3C2)cc1C(C)(C)C
inhibition in vivo at 2 mg/kg (Rattus norvegicus [2]): 53%

half-life [6]: 11 h
Compound: N[C@]1(CO)CC[C@H](c2ccc3c(c2)CC[C@@H](COCc2ccccc2)C3)C1
inhibition in vivo at 0.3 mg/kg (Rattus norvegicus [1]): 49%

Compound: COc1ccc(COC[C@@H]2CCc3cc([C@H]4CC[C@](N)(CO)C4)ccc3C2)cc1
inhibition in vivo at 0.3 mg/kg (Rattus norvegicus [1]): 33%

Compound: N[C@]1(CO)CC[C@H](c2ccc3c(c2)CC[C@H](CSc2ccccc2)C3)C1
inhibition in vivo at 0.3 mg/kg (Rattus norvegicus [1]): 29%

half-life [3]: < 10 h
Compound: COc1ccc(OC[C@@H]2CCc3cc([C@H]4CC[C@](N)(CO)C4)ccc3C2)cc1
inhibition in vivo at 2 mg/kg (Rattus norvegicus [2]): 47%

half-life [3]: 21 h
Compound: COc1cccc(SC[C@@H]2CCc3cc([C@H]4CC[C@](N)(CO)C4)ccc3C2)c1
inhibition in vivo at 2 mg/kg (Rattus norvegicus [2]): 81%

Compound: COc1cccc(SC[C@@H]2CCc3cc([C@H]4CC[C@](N)(COP(=O)(O)O)C4)ccc3C2)c1
inhibition at 0.001 µM [4]: 30%
inhibition at 0.01 µM [5]: 44%

Compound: COc1cccc(CO[C@H]2CCc3cc([C@H]4CC[C@](N)(CO)C4)ccc3C2)c1
inhibition in vivo at 0.3 mg/kg (Rattus norvegicus [1]): 13%

Compound: N[C@]1(CO)CC[C@H](c2ccc3c(c2)CC[C@H](COCc2ccccc2)C3)C1
inhibition in vivo at 0.3 mg/kg (Rattus norvegicus [1]): 0%

Ratio (Sphingosine kinase 2 [8]): 2.5
Ratio [9]: 0.3
Ratio (Sphingosine kinase 2 [10]): 0.1
half-life [11]: > 100 h
Compound: CCCCCC[C@@H]1CCc2cc([C@H]3CC[C@](N)(CO)C3)ccc2C1 [BMS-986104]
ED50 (Rattus norvegicus [7]): 0.25 mg/kg

Ratio (Sphingosine kinase 2 [8]): 5.2
Ratio [9]: 1
Ratio (Sphingosine kinase 2 [10]): 0.6
half-life [3]: 27 h
Compound: COc1ccccc1CC[C@@H]1CCc2cc([C@H]3CC[C@](N)(CO)C3)ccc2C1 [UDIFITIMOD]
inhibition (INH) (Homo sapiens): >80%
inhibition in vivo at 0.1 mg/kg (Rattus norvegicus [12]): 53%
inhibition in vivo at 2 mg/kg (Rattus norvegicus [2]): 81%
ED50 (Rattus norvegicus [7]): 0.1 mg/kg

Compound: COc1ccccc1CC[C@H]1CCc2cc([C@H]3CC[C@](N)(CO)C3)ccc2C1
inhibition in vivo at 0.1 mg/kg (Rattus norvegicus [12]): 17%

Compound: COc1cccc(CO[C@@H]2CCc3cc([C@H]4CC[C@](N)(CO)C4)ccc3C2)c1
inhibition in vivo at 0.3 mg/kg (Rattus norvegicus [1]): 15%

Compound: COc1cccc(COC[C@@H]2CCc3cc([C@H]4CC[C@](N)(CO)C4)ccc3C2)c1
inhibition in vivo at 0.3 mg/kg (Rattus norvegicus [1]): 40%

Compound: COc1ccccc1SC[C@@H]1CCc2cc([C@H]3CC[C@](N)(COP(=O)(O)O)C3)ccc2C1
inhibition at 0.001 µM [4]: 16%
inhibition at 0.01 µM [5]: 26%

Compound: CCCCCC[C@@H]1CCc2cc([C@H]3CC[C@](N)(COP(=O)(O)O)C3)ccc2C1
inhibition at 0.001 µM [4]: 1%
inhibition at 0.01 µM [5]: 32%

half-life [3]: 24 h
Compound: COc1ccccc1SC[C@@H]1CCc2cc([C@H]3CC[C@](N)(CO)C3)ccc2C1
inhibition in vivo at 2 mg/kg (Rattus norvegicus [2]): 78 to 79%
Activity [13]: 67%

half-life [3]: 14 h
Compound: COc1ccccc1OC[C@@H]1CCc2cc([C@H]3CC[C@](N)(CO)C3)ccc2C1
inhibition in vivo at 2 mg/kg (Rattus norvegicus [2]): 85%

Compound: COc1ccccc1OC[C@@H]1CCc2cc([C@H]3CC[C@](N)(COP(=O)(O)O)C3)ccc2C1
inhibition at 0.001 µM [4]: 20%
inhibition at 0.01 µM [5]: 43%

half-life [3]: 35 h
Compound: Cc1ccc(OC[C@@H]2CCc3cc([C@H]4CC[C@](N)(CO)C4)ccc3C2)cc1
inhibition in vivo at 2 mg/kg (Rattus norvegicus [2]): 20%

Compound: COc1cccc(OC[C@H]2CCc3cc([C@H]4CC[C@](N)(CO)C4)ccc3C2)c1
inhibition in vivo at 0.3 mg/kg (Rattus norvegicus [1]): 70%

Compound: COc1cccc(OC[C@@H]2CCc3cc([C@H]4CC[C@](N)(COP(=O)(O)O)C4)ccc3C2)c1
inhibition at 0.001 µM [4]: 13%
inhibition at 0.01 µM [5]: 30%

Ratio (Sphingosine kinase 2 [8]): 1.5
Ratio [9]: 1.3
half-life [6]: 24 h
half-life [3]: 24 h
Compound: COc1cccc(OC[C@@H]2CCc3cc([C@H]4CC[C@](N)(CO)C4)ccc3C2)c1
inhibition in vivo at 0.3 mg/kg (Rattus norvegicus [1]): 80%
inhibition in vivo at 2 mg/kg (Rattus norvegicus [2]): 86%
ED50 (Rattus norvegicus [7]): < 0.05 mg/kg
Activity [14]: Non-Toxic
inhibition in vivo at 0.05 mg/kg (Rattus norvegicus [15]): 72%
inhibition in vivo at 1 mg/kg (Rattus norvegicus [16]): 80%
inhibition in vivo at 1.5 mg/kg (Rattus norvegicus [17]): 81%
